3 molecules from patent US12466817B2, “Pyridine derivative and application thereof” (Nicoya Therapeutics (Shanghai) Co., Ltd, priority 2020, dated 2025) can be followed below.

One data set addresses T1, CYP2C19 (Homo sapiens, UniProt P33261).
T1 construct: from tissue; host or cells: human liver microsomes
The experiment in a line: Inhibition of human liver microsomal CYP2C19 activity. It counts as in vitro ADME. To be noted: human liver microsomes, probe substrate (S)-mephenytoin, NADPH. As for the experimental part:
(§1) A total of five specific probe substrates for the five isozymes of CYP, phenacetin (CYP1A2), diclofenac (CYP2C9), (S′)-mephenytoin (CYP2C19), dextromethorphan ([…]), and midazolam (CYP3A4), were incubated respectively with human liver microsomes and the test compounds, and the reaction was initiated by the addition of reduced nicotinamide adenine dinucleotide phosphate (NADPH), and the samples were treated and the concentrations of the five metabolites produced by the specific substrates, acetaminophen, 4′-hydroxydiclofenac, 4′-hydroxymephenytoin, dextrorphan and 1′-hydroxymidazolam were measured by liquid chromatography tandem mass spectrometry (LC-MS/MS) after the end of the reaction, and the corresponding half maximal inhibitory concentrations (IC50) were calculated.
In general terms: Liver microsomes are vesicles of endoplasmic reticulum, rich in cytochrome P450 enzymes.

Another data set concerns the target T2, CYP2D6 (Homo sapiens, UniProt P10635).
T2 construct: from tissue; host or cells: human liver microsomes
Briefly: Inhibition of human liver microsomal CYP2D6 activity. It counts as in vitro ADME. To be noted: human liver microsomes, probe substrate dextromethorphan, NADPH. As for the experimental part: as §1

A further data set deals with T3, CCR2 (Homo sapiens, UniProt P41597).
T3 construct: expressed in transfected cells; host or cells: HEK293, clone C7, passage P6
T3 sequence (P41597 whole entry, species assumed): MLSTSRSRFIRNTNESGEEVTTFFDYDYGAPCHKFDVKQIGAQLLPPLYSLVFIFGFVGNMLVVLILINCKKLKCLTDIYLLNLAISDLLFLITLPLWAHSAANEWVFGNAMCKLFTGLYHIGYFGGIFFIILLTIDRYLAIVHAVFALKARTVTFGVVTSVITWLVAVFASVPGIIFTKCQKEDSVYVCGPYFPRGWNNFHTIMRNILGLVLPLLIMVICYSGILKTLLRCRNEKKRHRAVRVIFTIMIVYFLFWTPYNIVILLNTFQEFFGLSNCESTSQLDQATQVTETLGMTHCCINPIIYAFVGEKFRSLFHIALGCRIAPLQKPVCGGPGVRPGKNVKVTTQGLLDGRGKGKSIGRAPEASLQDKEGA
The experiment in a line: CCR2 FLIPR Calcium assay (intracellular calcium signaling). It counts as cell-based. The note with it: HEK293 host cells, clone C7; agonist MCP-1; Fluo-4 calcium signal. The procedure:
(§2) The inhibitory effects of the compounds on CCR2 and CCR5 receptors were evaluated by detecting intracellular calcium signaling changes by FLIPR Calcium assay, using the IC50 values of the compounds as indicators.
(§3) 1. Cell lines: The cells were seeded and incubated overnight at 37° C. in a 5% CO2 incubator CCR2/CCR5 density: 1 M (20 k/well)
(§4) 2. Reagent: Fluo-4 Direct, (Invitrogen, Cat #F10471)
(§5) The compound was prepared by dissolving in DMSO to a 10 mM solution, and the compound solution was placed in a nitrogen chamber.
(§6) Preparation of probenecid in FLIPR assay buffer: 1 mL of FLIPR assay buffer was added to 77 mg of probenecid to make a 250 mM solution. The solution was prepared every day to keep fresh.
(§7) 2× (8 μM) Fluo-4 Direct™ loading buffer (10 mL of each)
(§8) 0.2 mL of probenecid was added to each 10 mL of Fluo-Direct. The final measured concentration was 2.5 mM MCP-1 was diluted in FLIPR assay buffer 1:2 for 10 spots, starting at 0.5 μM (eventually to […]). RANTES was diluted in FLIPR assay buffer 1:3 for 10 spots, starting at 0.5 μM (eventually to […]). 20 μL of serially diluted compound buffer was added to each well of the DRC plate.
(§9) The standard compound was diluted in DMSO 1:3 for 11 points, starting at 1 mM.
(§10) The test compound was diluted in DMSO 1:3 for 11 spots, starting at 2 mM. 250 nL of compound solution was transferred to cell plates using Echo (Greiner #781946) c) The cell plate was taken from the incubator and 20 μL of 2× Fluo-4 Direct no wash loading buffer was gently dispensed into a 384-well cell culture plate using a pipette. The volume in the final cell plate was 40 μL […]
(§11) d) Incubation was conducted at 37° C. 5% CO2 for 50 minutes, at room temperature for 10 minutes e) The cell plate was taken from the incubator and placed in the FLIPR. The composite plate and pipette tip box were placed in the FLIPR
(§12) 5) The “Max-Min” was calculated from Read 90 to the maximum allowed. EC80 values for each cell line were calculated using FLIPR
(§13) 6) Agonist reference compound at 5 times EC80 concentration was prepared 2) 10 μL of agonist reference compound at 5 times EC80 concentration was transferred from the composite plate to the cell plate.
(§14) 3) Fluorescence signals were read.
(§15) 4) The “Max-Min” was calculated from Read 90 to the maximum allowed h) Data was analyzed by using Prism, the IC50 values of the compounds were calculated.

For a further data set, the target named is T4, CYP3A4 (Homo sapiens, UniProt P08684).
T4 construct: from tissue; host or cells: human liver microsomes
T4 sequence (P08684 whole entry): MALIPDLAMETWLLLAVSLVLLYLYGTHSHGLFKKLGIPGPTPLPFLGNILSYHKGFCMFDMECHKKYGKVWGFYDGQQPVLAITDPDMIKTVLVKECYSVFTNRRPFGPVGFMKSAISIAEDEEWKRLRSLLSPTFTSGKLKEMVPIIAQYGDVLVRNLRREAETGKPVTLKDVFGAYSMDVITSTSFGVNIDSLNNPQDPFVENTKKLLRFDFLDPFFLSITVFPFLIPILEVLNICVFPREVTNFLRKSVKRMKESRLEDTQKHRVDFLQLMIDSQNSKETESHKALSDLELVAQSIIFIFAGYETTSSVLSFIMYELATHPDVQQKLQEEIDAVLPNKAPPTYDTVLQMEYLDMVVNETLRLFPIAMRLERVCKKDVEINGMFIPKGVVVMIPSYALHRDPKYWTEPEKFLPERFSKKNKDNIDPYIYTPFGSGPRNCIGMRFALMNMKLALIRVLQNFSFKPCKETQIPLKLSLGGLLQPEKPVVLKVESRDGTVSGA
Briefly: Inhibition of human liver microsomal CYP3A4 activity. The data set is classed as in vitro ADME. The note with it: human liver microsomes, probe substrate midazolam, NADPH. The procedure:
as §1

The target of another data set is T5, CYP1A2 (Homo sapiens, UniProt P05177).
T5 construct: from tissue; host or cells: human liver microsomes
T5 sequence (P05177 1-516): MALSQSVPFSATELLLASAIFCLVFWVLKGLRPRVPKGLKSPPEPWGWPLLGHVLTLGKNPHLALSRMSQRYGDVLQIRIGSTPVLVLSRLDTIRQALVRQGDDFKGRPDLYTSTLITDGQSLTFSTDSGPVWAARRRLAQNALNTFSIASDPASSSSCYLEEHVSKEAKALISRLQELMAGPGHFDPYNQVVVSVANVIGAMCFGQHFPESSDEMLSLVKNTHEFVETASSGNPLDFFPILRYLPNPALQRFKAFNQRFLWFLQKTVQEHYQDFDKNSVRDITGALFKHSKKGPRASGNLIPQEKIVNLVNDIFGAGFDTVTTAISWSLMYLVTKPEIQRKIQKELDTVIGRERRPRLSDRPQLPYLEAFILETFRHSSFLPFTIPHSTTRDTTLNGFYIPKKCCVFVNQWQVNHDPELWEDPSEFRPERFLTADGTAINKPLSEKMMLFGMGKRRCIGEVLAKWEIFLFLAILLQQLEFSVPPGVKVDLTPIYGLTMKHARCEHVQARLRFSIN
Briefly: Inhibition of human liver microsomal CYP1A2 activity. It counts as in vitro ADME. The note with it: human liver microsomes, probe substrate phenacetin, NADPH. As for the experimental part:
as §1

Data set [1] is described as follows: Comparative pharmacokinetic test in mice. The data set is classed as in vivo, C57BL/6 male mice. The procedure: C57BL/6 male mice were used as test animals in the present study, and the plasma drug concentrations of the test compound WX009 and the reference compound in mice by intravenous administration or oral administration were quantified by LC/MS/MS method at different time points respectively to evaluate the pharmacokinetic characteristics of the two test drugs in mice.
A clarified solution of the test compound was injected via tail vein into C57BL/6 mice (overnight fasting, 7-10 weeks old), and the test compound was given by gavage into C57BL/6 mice (overnight fasting, 7-10 weeks old). Approximately 30 μL of blood was collected from the jugular or tail vein at 0.0833, 0.25, 0.5, 1, 2, 4, 6, 8, and 24 hours after administration, and placed in anticoagulation tubes added with EDTA-K2, then centrifuged at 4° C. for 15 minutes at 3000 g to give the plasma. Plasma drug concentration was determined by LC-MS/MS, and relevant pharmacokinetic parameters were calculated using WinNonlin™ Version 6.3 (Pharsight, Mountain View, CA) pharmacokinetic software with a non-compartmental model linear logarithmic trapezoidal method.

Another data set addresses T6, CYP2C9 (Homo sapiens, UniProt P11712).
T6 construct: from tissue; host or cells: human liver microsomes
Briefly: Inhibition of human liver microsomal CYP2C9 activity. It counts as in vitro ADME. To be noted: human liver microsomes, probe substrate diclofenac, NADPH. As for the experimental part: as §1

The target in another data set is T7, CCR5 (Homo sapiens, UniProt P51681).
T7 construct: expressed in transfected cells; host or cells: HEK293, clone C13, passage P4
T7 sequence (P51681 whole entry, species assumed): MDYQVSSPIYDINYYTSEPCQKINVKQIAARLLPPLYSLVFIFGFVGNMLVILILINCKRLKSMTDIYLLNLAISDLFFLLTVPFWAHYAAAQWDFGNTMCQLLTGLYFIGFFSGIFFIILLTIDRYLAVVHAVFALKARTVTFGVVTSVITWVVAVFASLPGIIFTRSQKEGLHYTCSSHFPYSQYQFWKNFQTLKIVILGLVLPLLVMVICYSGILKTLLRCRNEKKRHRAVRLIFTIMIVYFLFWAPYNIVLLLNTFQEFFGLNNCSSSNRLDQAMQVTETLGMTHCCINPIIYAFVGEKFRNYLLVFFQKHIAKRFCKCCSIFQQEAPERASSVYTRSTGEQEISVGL
Briefly: CCR5 FLIPR Calcium assay (intracellular calcium signaling). The data set is classed as cell-based. The note with it: HEK293 host cells, clone C13; agonist RANTES; Fluo-4 calcium signal. The procedure: as §2, §3, §4, §5, §6, §7, §8, §9, §10, §11, §12, §13, §14, §15
On the technique in general: Calcium assays in cells follow changes in intracellular calcium, usually with a dye or a luminescent sensor.

Data set [2] has as its system human liver microsomal cytochrome P450 isozymes (CYP1A2, CYP2B6, CYP2C8, CYP2C9, CYP2C19, CYP2D6 and CYP3A4). The experiment in a line: Inhibition of human liver microsomal cytochrome P450 isozymes, overall conclusion. The data set is classed as in vitro ADME. The note with it: human liver microsomes. As for the experimental part: as §1

T2 sequence (P10635 whole entry): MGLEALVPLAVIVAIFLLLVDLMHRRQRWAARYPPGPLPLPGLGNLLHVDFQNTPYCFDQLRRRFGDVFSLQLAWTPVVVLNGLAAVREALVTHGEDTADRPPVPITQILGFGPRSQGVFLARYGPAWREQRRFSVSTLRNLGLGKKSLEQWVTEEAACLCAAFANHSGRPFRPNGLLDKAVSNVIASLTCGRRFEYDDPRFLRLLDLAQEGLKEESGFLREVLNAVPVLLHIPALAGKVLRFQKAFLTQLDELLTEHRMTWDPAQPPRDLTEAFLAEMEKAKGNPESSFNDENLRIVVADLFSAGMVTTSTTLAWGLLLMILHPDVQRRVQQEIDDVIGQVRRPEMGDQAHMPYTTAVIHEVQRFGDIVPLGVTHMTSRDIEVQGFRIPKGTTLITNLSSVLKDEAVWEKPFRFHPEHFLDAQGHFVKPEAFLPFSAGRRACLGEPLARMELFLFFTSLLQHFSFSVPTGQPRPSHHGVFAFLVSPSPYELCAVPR
T6 sequence (P11712 whole entry): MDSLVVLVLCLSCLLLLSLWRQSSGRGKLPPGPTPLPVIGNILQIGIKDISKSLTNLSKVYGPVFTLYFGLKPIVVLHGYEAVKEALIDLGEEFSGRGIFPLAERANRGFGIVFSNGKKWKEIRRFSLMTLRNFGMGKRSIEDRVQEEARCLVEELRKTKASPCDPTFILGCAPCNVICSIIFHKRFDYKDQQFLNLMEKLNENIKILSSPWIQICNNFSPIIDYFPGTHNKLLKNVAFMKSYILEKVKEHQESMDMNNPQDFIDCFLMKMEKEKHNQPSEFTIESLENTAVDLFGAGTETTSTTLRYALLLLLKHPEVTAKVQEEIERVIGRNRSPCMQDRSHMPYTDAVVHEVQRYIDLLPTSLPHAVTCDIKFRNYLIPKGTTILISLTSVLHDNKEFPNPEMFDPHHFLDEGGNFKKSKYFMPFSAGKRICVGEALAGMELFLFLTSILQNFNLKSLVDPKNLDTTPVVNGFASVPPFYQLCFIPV
T1 sequence (P33261 whole entry): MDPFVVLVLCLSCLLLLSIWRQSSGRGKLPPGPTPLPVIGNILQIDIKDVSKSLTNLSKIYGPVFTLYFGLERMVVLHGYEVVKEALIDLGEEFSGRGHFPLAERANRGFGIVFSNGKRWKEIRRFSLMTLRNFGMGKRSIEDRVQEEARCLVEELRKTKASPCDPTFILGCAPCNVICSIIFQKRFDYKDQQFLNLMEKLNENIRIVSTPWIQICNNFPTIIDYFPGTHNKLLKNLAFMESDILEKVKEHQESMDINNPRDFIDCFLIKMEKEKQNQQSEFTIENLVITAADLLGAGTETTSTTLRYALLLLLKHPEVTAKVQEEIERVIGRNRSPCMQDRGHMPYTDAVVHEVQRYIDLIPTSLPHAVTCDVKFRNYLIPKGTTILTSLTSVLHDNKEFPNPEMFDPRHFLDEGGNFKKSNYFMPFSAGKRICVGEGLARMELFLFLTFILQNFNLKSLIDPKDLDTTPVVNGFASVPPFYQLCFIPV

One may read the IC50 as the point on the concentration scale where inhibition reaches its midpoint. In general, half-life refers to how long it takes for the measured level to halve. The low end stands for rapid decline, the high end for slow decline. One may read the clearance as a measure of how efficiently the substance is removed, as volume per time. By bioavailability is commonly meant the share of a dose that reaches the circulation, judged against a reference dose that is usually intravenous. As for `CCCCOCCOc1ccc(-c2ccc3c(c2)C=C(C(=O)Nc2ccc([S+]([O-])Cc4c(CC)ccnc4C)cc2)CCCN3CC2CCCO2)cc1` (single isomer, unassigned) [WX009], the IC50 at CYP2C19 was over 50 µM; against CYP2D6 it was over 50 µM; on CCR2, 0.00184 µM; against CYP3A4, 4.6 µM; against CYP1A2 it was over 50 µM; on CYP2C9, over 50 µM. Besides, at CCR5, the half-maximal inhibitory concentration (IC50) came to 0.00464 µM. The same molecule showed a half-life in data set [1] (male, C57BL/6, mouse, plasma, mice, intravenous injection 2 mg/kg) of 4.4 h. In data set [1] (male, C57BL/6, mouse, plasma, mice, intravenous injection 2 mg/kg, read-out: Plasma clearance rate), the clearance is 0.46 mL/min/kg. In [1] (male, C57BL/6, mouse, plasma, mice, oral 10 mg/kg), this molecule came in with a bioavailability of 8%. The “Plasma clearance rate compared with the reference compound (in words)” value in [1] (mice, intravenous) was “slower”. In addition, the “Oral plasma systemic exposure (AUC0-inf) relative to the reference compound” value in data set [1] (mice, oral) is given as “approximately six times higher”. Besides, in data set [1] (mice, oral 10 mg/kg), the “Area under the time-concentration curve (0-inf)” value was determined as 37.356 µM·h. In addition, the Peak concentration in data set [1] (mice, oral 10 mg/kg) worked out at 5.076 µM. Further, the Peak time in data set [1] (mice, oral 10 mg/kg) is reported as 2.0 h. Also, the “Pharmacokinetics compared with the reference compound (in words)” value in data set [1] (rodent mice) is reported as “significantly better”. For the same molecule, in [2], the “Risk of inhibition of human liver microsomal cytochrome P450 isozymes (in words)” value (“Risk of inhibition … (in words)” below) is “no risk of inhibition”.
Take `CCCCOCCOc1ccc(-c2ccc3c(c2)C=C(C(=O)Nc2ccc([S+]([O-])Cc4c(CC)ccnc4C)cc2)CCCN3CC2CCOCC2)cc1` (single isomer, unassigned) [WX007]: the half-maximal inhibitory concentration (IC50) is over 50 µM on CYP2C19; over 50 µM on CYP2D6; 0.00196 µM on CCR2; over 50 µM against CYP3A4; over 50 µM at CYP1A2; over 50 µM at CYP2C9. For the same molecule, on CCR5, the IC50 is 0.00574 µM. Also, in data set [2], the “Risk of inhibition … (in words)” value is “no risk of inhibition”.
Consider `CCCCOCCOc1ccc(-c2ccc3c(c2)C=C(C(=O)Nc2ccc([S+]([O-])Cc4cnc(C)cc4CC)cc2)CCCN3CC2CCOCC2)cc1` (single isomer, unassigned) [WX012], for which the IC50 on CYP2C19 is 10.1 µM; on CYP2D6 it was over 50 µM; on CCR2, 0.0015 µM; against CYP3A4 it was over 50 µM; on CYP1A2 it was over 50 µM; on CYP2C9 it was 22.6 µM. On CCR5, the concentration for half-maximal inhibition (IC50) is 0.0084 µM. In addition, the “Risk of inhibition … (in words)” value in data set [2] is reported as “no risk of inhibition”.
